Results published in patent US20260049282A1, “METHOD FOR REMOVING SENESCENT CELL, AND METHOD FOR PREPARING SENESCENT CELL” (The University of Tokyo, priority 2018, published 2026).

Experiments:
[1] = system: senescent cells (senescence-induced normal human fibroblasts HCA2); experiment: Viable cell count (trypan blue) of senescent cells treated with glutaminase inhibitor; assay type: cell-based
Procedure: RO3306 (SIGMA-ALDRICH) (final concentration: 9 μM) was added to normal human fibroblasts (HCA2), followed by culture at 37° C. and 5% CO2 for 16 hours. Next, culture was performed at 37° C. and 5% CO2 for 8 hours in a culture medium containing RO3306 (final concentration: 9 μM) and Nutlin-3a (SIGMA-ALDRICH) (final concentration: 10 μM), and then culture was performed at 37° C. and 5% CO2 for 48 hours in a culture medium containing Nutlin-3a (final concentration: 10 μM). Culture was performed at 37° C. and 5% CO2 for 9 days while replacing the medium with a medium containing BI2536 (SIGMA-ALDRICH) (final concentration: 100 nM) every 3 days. Thereafter, senescence induction was carried out by performing culture at 37° C. and 5% CO2 for 9 days while replacing the medium with a normal medium (FIG. 1A).
(§1) Senescent cells and normal cells were seeded in 6-cm culture dishes such that approximately 10,000 cells were in each dish.

[2] = system: normal cells (normal human fibroblasts HCA2); experiment: Viable cell count (trypan blue) of normal cells treated with glutaminase inhibitor; assay type: cell-based; details: BPTES final concentration 10 μM, 3 days
Procedure: as §1

[3] = system: IL-6 and IL-8 mRNA expression; experiment: qPCR of SASP factors IL-6 and IL-8 mRNA in senescent cells; assay type: cell-based, human; details: BPTES 2.5 μM, 24 hours
Procedure: After reverse transcription from total RNA into cDNA using the SuperScript II cDNA synthesis kit (Invitrogen) was performed, qPCR analysis was performed using the Power SYBR Green PCR Master Mix (Applied Biosystems) so as to measure the IL-6 and IL-8 expression levels. Primers for detecting the IL-6 and IL-8 mRNA expression levels are shown below.

[4] = system: S6K protein T389 phosphorylation (indicator of activation of mTOR); experiment: Western blotting of S6K protein T389 phosphorylation in senescent cells; assay type: cell-based, human
Procedure: Further, the molecular mechanism of SASP inhibition was analyzed. […] Cell extracts were prepared from the cultured cells using Laemmli-buffer (2% SDS, 10% glycerol, 5% 2-mercaptoethanol, 0.002% bromophenol blue, and 62.5 mM Tris HCl at pH 6.8). Cell extracts (20 to 50 μg) were separated by SDS-PAGE, and after transcription to PVDF membrane, Western blotting was performed using an antibody to the T389 phosphorylation site of the […] protein (CST), an antibody to the S6K protein (CST), and an antibody to the p16 protein (abcam), and detection was performed by ECL.

[5] = system: ammonia production in senescent cells; experiment: Intracellular ammonia quantification (ammonia assay kit); assay type: cell-based, human; details: BPTES final concentration 10 μM, 24 hours
Text: Senescent cells and normal cells were separately seeded in 10-cm culture dishes such that approximately 50,000 cells were in each dish. […] Thereafter, the amount of ammonia in cells was quantified using the ammonia assay kit (abcam).

[6] = system: intracellular pH in senescent cells; experiment: Intracellular pH measurement; assay type: cell-based, human; parameters: dose or concentration left out as unconfirmed; details: BPTES final concentration, 24 hours; normal level about 7.4
Procedure: Next, senescent cells and normal cells were separately seeded in 6-cm well plates such that approximately 50,000 cells were in each plate. […] The medium was removed, culture was performed at 37° C. and 5% CO2 for 10 minutes in a HEPES solution containing […] (DOJINDO LABORATORIES) at a final concentration of 3 μM, and washing with the HEPES solution was performed three times. Thereafter, luminescence was measured with a plate reader. In order to determine the pH value, the amount of luminescence of cells treated with the HEPES solution (pH 6.0 to 7.6) containing nigericin at a final concentration of 10 μM was corrected.

senescent cells [7] = experiment: Effect of mPTP inhibitors on cell death of BPTES-treated cells (trypan blue count); assay type: cell-based, human; details: BPTES 10 μM alone
Procedure: The previous reports have shown that lowering intracellular pH causes apoptosis-independent cell death through the opening of mitochondrial permeability transition pore (mPTP) by the BNIP3 protein. Therefore, the effects of mPTP inhibitors (DUB and CsA) on BPTES-treated cells were examined.
(§2) Senescent cells and normal cells were separately seeded in 6-cm culture dishes such that approximately 10,000 cells were in each dish. […] Thereafter, the cells were stained with trypan blue every 24 hours, and the number of viable cells was counted using a hemocytometer.

senescent cells [8] = experiment: Cell viability of BPTES-treated cells in weakly basic medium (trypan blue count); assay type: cell-based, human; details: BPTES 10 μM
Procedure: Next, the pH of the medium of BPTES-treated cells was made weakly basic (pH 8.0 or pH 8.5), and the cell viability was examined.
as §2

[9] = system: p16 mRNA (marker of senescent cells); experiment: Removal of senescent cells in vivo: p16 mRNA by qPCR in organs of aged mice; details: 96-week-old C57BL6/N male mice, 12.5 mg/kg body weight once a week for 1 month
Procedure: Then, each mouse was dissected, RNA was extracted by homogenizing the heart, brain, kidney, and liver, and total RNA was prepared using the RNeasy mini kit (Qiagen) according to the attached protocol and reverse transcribed into cDNA using the ReverTra Ace qPCR RT kit (Takara). Using the obtained cDNA, the expression level of p16 mRNA, which is a marker of senescent cells, was analyzed by qPCR using Power SYBR Green PCR Master Mix (Applied Biosystems). The p16 mRNA expression level was corrected by the value of GAPDH. Primers for detecting the p16 mRNA expression level are shown below.

aged mice (76 weeks old) = experiment: Age-associated dysfunction of kidney, lung, heart and liver in aged mice; assay type: in vivo; details: BPTES 0.25 mg/20 g/200 μl intraperitoneally, 1 month
Text: It is examined whether removal of senescent cells by inhibition of glutaminolysis could improve aging or age-associated organ dysfunction.
The kidney, lung, liver, and heart were embedded with an OCT compound, thereby preparing frozen sections. Thereafter, tissue staining with hematoxylin-eosin (H&E), tissue staining with a Masson trichrome (MT) reagent, a periodic acid Schiff (PAS) reagent (Fisher Scientific), or immunostaining with DAB (3,3′-diaminobenzidine tetrahydrochloride) (DAKO) using an anti-F4-80 antibody (CST) was performed. After staining, tissue sections were observed under a microscope.
Kidney glomerulosclerosis was evaluated for 40 glomeruli per individual based on PAS-positive intensity and range. In addition, the serum urea concentration and creatinine concentration were measured using the Urea Assay kit (Abcam) and the Creatinine Assay kit (Abcam), respectively.
The degree of lung fibrosis was assessed by MT staining. […] In addition, when the MT-stained area was quantified by a BZ-X analyzer (Keyence), the degree of fibrosis was improved in the lungs of BPTES-treated mice as compared with the lungs of control mice (FIG. 7B, top).
For the heart, MT staining of heart tissue sections was performed so as to assess the degree of fibrosis (FIG. 8A). In addition, the heart weight was weighed, and the cardiomyocyte size was measured with a BZ-X analyzer (Keyence). As for the heart, the degree of fibrosis in the heart of BPTES-treated mice was improved as compared with the control mice (FIG. 8B).
Liver tissue sections were immunostained with an anti-F4/80 antibody (FIG. 9A) so as to assess the degree of macrophage infiltration. The degree of macrophage infiltration in the liver of BPTES-treated mice was improved compared to control mice (FIG. 9B).

mice fed a high fat diet = experiment: Obesity-associated senescent cell accumulation, macrophage infiltration and hypertrophy of white adipose tissue (high-fat diet mice); assay type: in vivo; details: high-fat diet 8 weeks, BPTES 0.25 mg/20 g/200 μl i.p. 3 times a week in latter 4 weeks
Procedure: Eight-week-old male mice (C57BL/6N) were maintained on a high-fat diet (HFD32, CLEA Japan) or a normal diet for 8 weeks. […] Then, white adipose tissue was collected from mice, and the accumulation of senescent cells was examined by SA-β-gal staining, and macrophage infiltration was examined by immunostaining with the anti-F4/80 antibody. In situ staining with SA-β-gal and the determination of the abundance ratio of SA-β-gal positive cells were carried out as described in 2-5-2. The degree of macrophage infiltration was determined as described in 2-5-1. The adipocyte size was measured with a BZ-X analyzer (Keyence).

[10] = system: ApoE knockout mice on atherogenetic diet; experiment: Obesity-associated atherosclerosis in ApoE knockout mice (Sudan IV staining of aorta); assay type: in vivo; details: atherogenetic diet 8 weeks, BPTES 0.25 mg/20 g/200 μl i.p. 3 times a week in latter 4 weeks
Procedure: C57BL/6J ApoE knockout mice (8 weeks old) were maintained on an atherogenetic diet (D12108C, Research Diets Inc.) for 8 weeks. […] In addition, C57BL/6J wild-type male mice (8 weeks old) were maintained on a normal diet as controls. All aortas except the arterial arch were cleanly depleted of adventitial fat, incised, and fixed flat in 4% […] at 25° C. for 12 hours. The aorta was washed with 70% ethanol for 5 minutes, incubated in 0.5% Sudan IV (in 1:1 acetone/ethanol) for 5 minutes, and then washed 3 times with 80% ethanol for 1 minute. Plaque formed in the aorta was stained with Sudan IV, the Sudan IV-positive area was quantified with ImageJ, and the plaque number was counted under a microscope.

[11] = system: mice on choline-deficient L-amino acid-defined high-fat diet; experiment: Liver dysfunction associated with non-alcoholic steatohepatitis (choline-deficient L-amino acid-defined high-fat diet mice); assay type: in vivo; details: NASH diet 8 weeks, BPTES 0.25 mg/20 g/200 μl i.p. 3 times a week in latter 4 weeks
Procedure: Eight-week-old male mice (C57BL/6N) were maintained on a choline-deficient L-amino acid-defined high-fat diet (A06071302, Research Diets Inc.) for 8 weeks. […] The serum AST level and the hydroxyproline (OH-Pro) level in the liver were measured by the AST assay kit (Abcam) and the Hydroxyproline assay kit (Abcam), respectively. In addition, the expression levels of p16, KGA, and IL-6 were measured by qPCR. Primers for qPCR are shown below.

O=C(Cc1ccccc1)Nc1nnc(CCSCCc2nnc(NC(=O)Cc3ccccc3)s2)s1 [BPTES, bis-2-(5-phenylacetamido-1,3,4-thiadiazol-2-yl)ethyl sulfide]
impact on the survival of senescent cells ([1]; BPTES final concentration 2.5 μM): little impact | number of cells (viable cells) [2]: increase in the number of cells | IL-6 mRNA expression [3]: inhibits mRNA expression | IL-8 mRNA expression [3]: inhibits mRNA expression | phosphorylation of the S6K protein T389 ([4]; BPTES 2.5 μM, 24 hours): inhibits phosphorylation | ammonia production in senescent cells [5]: suppresses the increased ammonia production in senescent cells to the same level as in normal cells | intracellular pH in senescent cells [6]: about 6.0 | cell death seen with BPTES treatment (senescent cells [7]): at least 90% | cell death seen with BPTES treatment (senescent cells [8]; medium not weakly basic (pH 7.4)): at least 90% | cell death with BPTES under weakly basic pH conditions (senescent cells [8]; medium pH 8.0 or pH 8.5): about 30% | p16 mRNA expression in the brain [9]: decreased | p16 mRNA expression in the heart [9]: decreased | p16 mRNA expression in the kidney [9]: decreased | p16 mRNA expression in the liver [9]: decreased | cardiomyocyte size (aged mice (76 weeks old)): smaller than that of control mice | heart weight (aged mice (76 weeks old)): lighter than that of young mice | serum creatinine concentration (aged mice (76 weeks old)): reduced | serum urea concentration (aged mice (76 weeks old)): reduced | degree of fibrosis in the heart (MT staining) (aged mice (76 weeks old); vs control mice): improved | degree of glomerulosclerosis (PAS staining) (aged mice (76 weeks old); vs control mice): improved | degree of lung fibrosis (MT-stained area) (aged mice (76 weeks old); vs control mice): improved | degree of macrophage infiltration in the liver (anti-F4/80 immunostaining) (aged mice (76 weeks old); vs control mice): improved | accumulation of senescent cells associated with obesity (SA-β-gal, white adipose tissue) (mice fed a high fat diet): reduced | degree of macrophage infiltration in white adipose tissue (anti-F4/80) (mice fed a high fat diet): reduced | size of adipocytes associated with obesity (mice fed a high fat diet): reduced | weight of white adipose tissue (mice fed a high fat diet): reduced | aortic plaque area (Sudan IV-positive area) [10]: reduces | aortic plaque number [10]: reduces | IL-6 expression level in the liver (qPCR) [11]: lowers | KGA expression level in the liver (qPCR) [11]: lowers | hydroxyproline (OH-Pro) level in the liver [11]: lowers | p16 expression level in the liver (qPCR) [11]: lowers | serum AST level [11]: lowers

COC(=O)CCC(=O)C(=O)OC [DM-KG]
rescue of senescent cell-selective cell death caused by BPTES ([1]; BPTES 10 μM plus transmembrane α-ketoglutaric acid): could hardly rescue | rescue of the BPTES inhibitory effect on S6K T389 phosphorylation ([4]; BPTES plus DM-KG): rescued
